Assay results published in BigSolDB 2.1.

COc1c(N2CCNC(C)C2)c(F)cc2c(=O)c(C(=O)O)cn(C3CC3)c12 (configuration not stated)
solubility (mole fraction)
Details | 273.15 K | 278.15 K | 283.15 K | 288.15 K | 293.15 K | 298.15 K | 303.15 K | 308.15 K | 313.15 K | 318.15 K
in 1,4-dioxane | – | – | – | 0.000952 | 0.00111 | 0.00129 | 0.00149 | 0.00172 | 0.00198 | 0.00228
in 2-butanone | 0.00158 | 0.00186 | 0.00219 | 0.00257 | 0.003 | 0.00349 | 0.00405 | 0.00468 | 0.00539 | 0.0062
in DMF | 0.00259 | 0.00305 | 0.00359 | 0.00417 | 0.00486 | 0.00566 | 0.00653 | 0.00751 | 0.00864 | 0.00989
in acetone | 0.00081 | 0.000942 | 0.00111 | 0.0013 | 0.00152 | 0.00177 | 0.00204 | 0.00235 | 0.0027 | 0.00309
in acetonitrile | 0.0013 | 0.0015 | 0.00177 | 0.00208 | 0.00244 | 0.00281 | 0.00322 | 0.0037 | 0.00424 | 0.00485
in ethanol | 0.000261 | 0.000326 | 0.000403 | 0.000489 | 0.000585 | 0.000698 | 0.000829 | 0.000984 | 0.00116 | 0.00136
in ethyl acetate | 0.00323 | 0.00378 | 0.0044 | 0.00509 | 0.00588 | 0.00679 | 0.00778 | 0.00893 | 0.0102 | 0.0117
in isopropanol | 0.000123 | 0.000158 | 0.000204 | 0.000254 | 0.000322 | 0.000401 | 0.000498 | 0.000613 | 0.000751 | 0.000912
in methanol | 0.00019 | 0.000232 | 0.000294 | 0.00036 | 0.000438 | 0.000531 | 0.000637 | 0.000752 | 0.000902 | 0.00107
in n-butanol | 0.00105 | 0.00122 | 0.00143 | 0.00169 | 0.00195 | 0.00225 | 0.0026 | 0.00299 | 0.00344 | 0.00395
in n-propanol | 0.000364 | 0.000445 | 0.000545 | 0.000655 | 0.000778 | 0.000922 | 0.00109 | 0.00127 | 0.00149 | 0.00173
in toluene | 5.9e-05 | 8.1e-05 | 0.000109 | 0.000146 | 0.000199 | 0.000261 | 0.000344 | 0.000446 | 0.000577 | 0.000742
